Where a name gives a salt, the structure may show the parent alone. Read-outs that look alike come from different tables or passages of the source.
Tests used:
[1] = test system: CYP2A6; set-up: method as in Investigator’s Brochure (IB); settings: in vitro; ref Investigator’s Brochure (IB); cited from earlier work
[2] = test system: CYP2B6; set-up: method as in Investigator’s Brochure (IB); settings: ref Investigator’s Brochure (IB), cited from earlier work
[3] = test system: CYP2C19; set-up: method as in Investigator’s Brochure (IB); settings: in vitro; ref Investigator’s Brochure (IB); cited from earlier work
[4] = mouse, cited from earlier work
[5] = 14-day GLP toxicology study in dogs (UV4-COV-0035); type: in vivo, dog
Protocol: Fourteen-day studies were conducted in mice and dogs. In dogs at 2 mg/kg/dose TID (6 mg/kg/day), there were mild decreases in platelets (PLT), increases in aspartate aminotransferase (AST) (up to 2.8 x baseline [BL]); and a decrease in thymus weight with lymphocyte depletion. Therefore, this dose exceeded the NOEL. At the no observed adverse event level (NOAEL) of 10 mg/kg/dose TID (30 mg/kg/day), there was an increase in the occurrence of poorly formed and liquid feces; decrease in PLT count and increase in activated partial thromboplastin time (aPTT) (2.2 x BL); increase in AST (up to 9.7 x BL) and alanine aminotransferase (ALT) (up to 2.9 x BL) with an inverted AST/ALT ratio; and a decrease in […]
lymphocyte depletion (no cellular debris was noted, however). The inverted AST/ALT ratio and lymphocyte depletion were reversible. Thymus weight decrease in females was reversible but thymus weight decreases in males were not. However, because the apparent […]
microscopic thymus findings, thymus weight differences at the recovery necropsy were considered not toxicologically important. […]
ng•h/mL, respectively. Daily exposure at NOAEL [calculated as 3 x AUC(0-8)] is estimated at 163,305 ng•h/mL. […]
Daily exposure [calculated as 3 x AUC(0-8)] is estimated at 32,820 ng•h/mL. […]

[6] = set-up: method as in Investigator’s Brochure (IB); settings: 50 mg/kg/day for 13 days; ref Investigator’s Brochure (IB); cited from earlier work
[7] = Reproductive toxicity upper limit study in rabbits, 13 days; type: in vivo, rabbit; settings: 50 mg/kg/day
Protocol: 7. Reproductive toxicity:
UV-4B has been evaluated for developmental and reproductive toxicity in fertility and early embryonic development in rats, embryo-fetal development in rats and rabbits, and pre- and postnatal development in rats. In male and female rats given UV-4B at 8, 20, and 50 mg/kg/day before mating and continuing through Gestation Day 13, a […]
observed at 50 mg/kg/day. […]
count but following a 21-week treatment-free period there was complete recovery in pregnancy and fertility indices However, decrease in testicular weight, sperm motility […]
identify the upper limit of reproductive toxicity, a dose of 50 mg/kg/day for 12 […]
In a study designed to identify the upper limit of reproductive toxicity, a dose of 50 […]
rabbit offspring. The rat and rabbit doses are equivalent to 486 and 966 mg/day, […]
In summary, findings that have been identified in the UV-4B toxicology studies so far include effects on the GI tract (including ulcers/erosions), lymphocytes and lymphoid tissue, reduction in PLT count, and increases in transaminases (AST>ALT). Findings were generally consistent across mouse, dog, and rat, apart from the isolated finding of swollen paws/legs and perioral appearance and red skin which was seen only in the rat. […]

Compound: COCCCCCCCCCN1C[C@H](O)[C@@H](O)[C@H](O)[C@H]1CO [UV-4, N-(9’-methoxynonyl)-1-deoxynojirimycin]
- Direct inhibition of CYP2A6 [1]: No clinically relevant direct inhibition
- Estimated IC50 ([2]; CYP2B6): > 191 µg/mL
- IC50 ([2]; CYP2B6, read-out: Estimated IC50): > 600 µM
- Direct inhibition of CYP2B6 ([2]; in vitro): weak direct inhibition
- Direct inhibition of CYP2C19 [3]: No clinically relevant direct inhibition

Compound: COCCCCCCCCCN1C[C@H](O)[C@@H](O)[C@H](O)[C@H]1CO [UV-4B, N-(9’-methoxynonyl)-1-deoxynojirimycin hydrochloride]
- Dose with lymphoid depletion in thymus ([4]; F): ≥ 25 mg/kg/dose, TID
- Dose with lymphoid depletion in thymus ([4]; M): 100 mg/kg/dose, TID
- Dose with neutrophilic infiltration and erosion/ulcer in rectum ([4]; females (printed F100))): 100 mg/kg/dose, TID
- Neurologic Effects ([4]; functional observational battery): no effect in FOB
- Dose with decrease in thymus weight ([4]; printed (men)): ≥ 25 mg/kg/dose, TID
- Dose with increased AST ([4]; printed (men)): ≥ 600 mg/kg/dose, TID
- Dose with decrease in thymus weight ([4]; women [sic]): 100 mg/kg/dose, TID
- Dose with increased AST ([4]; women [sic]): 600 mg/kg/dose, TID
- Cardiovascular Effects [4]: none observed
- Dose with decrease in red cell mass, RBC count, HGB, and HCT [4]: 100 mg/kg/dose, TID
- Dose with fecal abnormalities [4]: > 250 mg/kg/dose, TID
- AUC(0-t) ([5]; both sexes, dog, in vivo, 30 mg/kg/day, dogs, at NOAEL 30 mg/kg/day, read-out: Daily exposure [3 x AUC(0-8)]): 32800 ng·h/mL
- HED of the lowest dose tested in dogs ([5]; from 2 mg/kg TID): 67 mg TID
- Finding in rabbit offspring [6]: skeletal and visceral malformations
- Human equivalent of the rabbit dose [7]: 966 mg/day
